From PubChem BioAssay (NCI) come the findings set out here.

Some test systems named below: EKVX NSCLC; HCT-15 colon; KM12 colon; NCI-H522 lung; OVCAR-5 ovarian; SF-268 CNS; SF-539 CNS; SNB-19 CNS; UO-31 renal; DU-145 prostate; PC-3 prostate.
Experiment in all cases: inhibition of tumour cell growth, NCI panel, 48 h

Each structure is given as a SMILES string.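 Results reflect a 48-hour exposure of cells in 96-well plates to compound at five concentrations. TGI: concentration producing complete growth inhibition.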

In the case of `COc1nc(OC)nc(Sc2ccc(Sc3ccc(Sc4nc(OC)nc(OC)n4)cc3)cc2)n1`, the TGI with EKVX NSCLC, with HCT-15 colon, in the assay with KM12 colon, in the assay with NCI-H522 lung, with OVCAR-5 ovarian and with SF-268 CNS was greater than 100 µM throughout. Besides, the TGI with SF-539 CNS, in the assay with SNB-19 CNS and in the assay with UO-31 renal was greater than 100 µM in each case.
As for `COC(=O)C1(C)OC(C)=NC1(C(=O)OC)C(=O)OC` (stereo not drawn), the TGI with DU-145 prostate, with EKVX NSCLC, with HCT-15 colon, with KM12 colon, in the assay on OVCAR-5 ovarian and in the assay on PC-3 prostate was greater than 100 µM each time. In addition, the TGI in the assay with SF-268 CNS, in the assay with SF-539 CNS, in the assay with SNB-19 CNS and with UO-31 renal was greater than 100 µM throughout.
`O=C1Cc2ccccc2CCc2ccsc21`: the TGI in the assay on EKVX NSCLC, in the assay on HCT-15 colon, in the assay with KM12 colon, with NCI-H522 lung, in the assay on OVCAR-5 ovarian and in the assay on SF-268 CNS was greater than 100 µM in each case. Besides, the TGI with SF-539 CNS, with SNB-19 CNS and with UO-31 renal was greater than 100 µM each time.
As for `COC(=O)CNCC1OC2OC(C)(C)OC2C1N=[N+]=[N-]` (stereo not drawn), the TGI in the assay with DU-145 prostate, in the assay on EKVX NSCLC, in the assay with HCT-15 colon, in the assay with KM12 colon, with OVCAR-5 ovarian and in the assay on PC-3 prostate was greater than 100 µM each time. In addition, the TGI in the assay on SF-539 CNS, with SNB-19 CNS and in the assay on UO-31 renal was greater than 100 µM throughout.
As for `Cc1cc(Cl)ccc1NC(=O)C(=O)Cc1occc(=O)c1O`, the TGI in the assay on EKVX NSCLC, with HCT-15 colon, in the assay on KM12 colon, with NCI-H522 lung, with OVCAR-5 ovarian and in the assay with SF-268 CNS was greater than 100 µM each time. In addition, the TGI in the assay on SF-539 CNS, in the assay with SNB-19 CNS and in the assay with UO-31 renal was greater than 100 µM each time.
Regarding `N#Cc1c(N2CCOCC2)ncn(-c2ccc(Cl)cc2)c1=O`, the TGI in the assay with DU-145 prostate, with EKVX NSCLC, with HCT-15 colon, with KM12 colon, in the assay on OVCAR-5 ovarian and in the assay on PC-3 prostate was greater than 100 µM in each case. The TGI with SF-539 CNS, with SNB-19 CNS and with UO-31 renal was greater than 100 µM throughout.
Regarding `COC1C(OC(N)=O)C(O)C(Oc2ccc3c(O)c(NC(=O)c4ccc(O)c(CC=C(C)C)c4)c(=O)oc3c2C)OC1(C)C` (stereo not drawn), the TGI in the assay on DU-145 prostate, with EKVX NSCLC, in the assay with HCT-15 colon, in the assay with KM12 colon, in the assay with OVCAR-5 ovarian and in the assay on PC-3 prostate was greater than 100 µM in each case. The TGI in the assay on SF-268 CNS, in the assay with SF-539 CNS, in the assay on SNB-19 CNS and with UO-31 renal was greater than 100 µM throughout.
Consider `O=C1c2c(ccc3c2CCCC3)CC1Cc1ccc2c(c1)CCCC2` (stereo not drawn), for which the TGI with DU-145 prostate, in the assay on EKVX NSCLC, in the assay on HCT-15 colon, in the assay on KM12 colon, in the assay with OVCAR-5 ovarian and with PC-3 prostate was greater than 100 µM throughout. Besides, the TGI in the assay with SF-268 CNS, with SF-539 CNS, in the assay with SNB-19 CNS and with UO-31 renal was greater than 100 µM throughout.
For `CC(=O)O/N=C/c1cc2c(cc1Br)OCO2`, the TGI in the assay on EKVX NSCLC, with HCT-15 colon, in the assay on KM12 colon, with NCI-H522 lung, with OVCAR-5 ovarian and with SF-268 CNS was greater than 349 µM in each case.
In the case of `Cc1ccc(Nc2cn(COCc3ccccc3)c(=O)[nH]c2=O)cc1`, the TGI in the assay on DU-145 prostate, with EKVX NSCLC, in the assay on HCT-15 colon, in the assay with KM12 colon, in the assay with OVCAR-5 ovarian and with PC-3 prostate was greater than 100 µM throughout. Further, the TGI in the assay on SF-268 CNS, in the assay with SNB-19 CNS and in the assay on UO-31 renal was greater than 100 µM each time.
As to `O=C1c2ccccc2C(=O)c2c(O)c(NCCNCCO)cc(O)c21`, the TGI turned out to be 14.4 µM with EKVX NSCLC; 14.1 µM with HCT-15 colon; 15.7 µM in the assay on KM12 colon; 21.8 µM in the assay with OVCAR-5 ovarian; 15.5 µM with SF-268 CNS; 14.4 µM in the assay on SF-539 CNS. Further, the figures for the TGI in the assay on SNB-19 CNS and with UO-31 renal were 11.8 µM and 11.7 µM, respectively.
Turning to `CCOC(=O)c1c(NC(=O)c2ccc(Br)cc2)sc2c1CCCC2`, the TGI in the assay with DU-145 prostate, with EKVX NSCLC, in the assay with KM12 colon, in the assay with OVCAR-5 ovarian, with PC-3 prostate and in the assay with SF-268 CNS was greater than 100 µM in each case. Besides, the TGI in the assay with SF-539 CNS, in the assay on SNB-19 CNS and in the assay on UO-31 renal was greater than 100 µM throughout.
Consider `CC(C)c1cccc(C(C)C)c1NC(=O)C(=O)C1SC(=S)NC1=O` (stereo not drawn), for which the TGI in the assay with EKVX NSCLC, in the assay with HCT-15 colon, in the assay with KM12 colon, in the assay with NCI-H522 lung, in the assay on OVCAR-5 ovarian and in the assay with SF-268 CNS was greater than 100 µM each time. The TGI in the assay with SF-539 CNS, in the assay with SNB-19 CNS and in the assay with UO-31 renal was greater than 100 µM in each case.
For `COc1ccc(/C=C(\Cl)c2ccc(OC)cc2)cc1`, the TGI in the assay on EKVX NSCLC, with KM12 colon, in the assay on NCI-H522 lung, in the assay on OVCAR-5 ovarian, with SF-268 CNS and in the assay with SF-539 CNS was greater than 100 µM throughout. The TGI in the assay on SNB-19 CNS and in the assay on UO-31 renal was greater than 100 µM in each case.
Take `Cc1nc2nn(C)cc2c(=O)n1/N=C/c1ccccc1`: the TGI with EKVX NSCLC, in the assay on HCT-15 colon, in the assay on KM12 colon, in the assay with NCI-H522 lung, with OVCAR-5 ovarian and in the assay on SF-268 CNS was greater than 100 µM each time. The TGI in the assay on SF-539 CNS, in the assay with SNB-19 CNS and with UO-31 renal was greater than 100 µM each time.
